Data published in patent publication US8653082B2, “6-phenyl-2-[((piperidin-4-ylmethyl)-piperazin-1YL) or piperazin 1-ylmethyl)-piperidin-1-yl)]-imidazo[2,1-B][1,3,4]thiadiazole derivatives and their use” (Urifer Ltd., priority 2009, dated 2014).

Columns and labels:
Type in all cases: cell-based
HCT116 = assay: XTT cell viability, HCT116 colon cancer cells; details: Homo sapiens, HCT-116; HCT116 colon cancer cell line; XTT test; compound in 30 mM HEPES pH=7, 0.25 to 10 μM; read-out: EC50 values on colon and liver cancer cells, HCT116
Procedure: (§1) The effect of the compounds Z522-0249, Z522-0251, Erbitux and E-626-0342 on the growth profile of cancer cells which express Fer was tested. The cells that were tested were: the colon cancer cell lines HT29, HCT 116, RKO, SW620, and SW48 and the liver cancer cell line Hep3B. The effect of each of the three compounds (Z522-0249, Z522-0251 and E-626-0342) on FS11 cells, a non malingnant fibroblastic cell line, was also studied.
(§2) Cells were seeded in 96 well microplates and were left to grow untreated overnight. Z522-0249 and Z522-0251 were dissolved in 30 mM HEPES pH=7 and were then added to each well in a dose dependent manner from 0.25 to 10 μM. E626-0342 was dissolved in DMSO and was then added to each well in a dose dependent manner from 0.1 to 5 μM. The concentration of DMSO in each well was 0.4% v/v. Untreated cells and cells subjected to 30 mM HEPEs pH=7 or 0.4% DMSO alone, served as controls. The number of viable cells in each well was determined 48, 72, and 96 hours after compound addition, using the XTT test (Berridge, M. V. et al, 2005).

HT29 = assay: XTT cell viability, HT29 colon cancer cells; details: Homo sapiens, HT-29; HT29 colon cancer cell line; XTT test; compound in 30 mM HEPES pH=7, 0.25 to 10 μM; read-out: EC50 values on colon and liver cancer cells, HT29
Procedure: as §1, §2

RKO = assay: XTT cell viability, RKO colon cancer cells; details: Homo sapiens; RKO colon cancer cell line; XTT test; compound in 30 mM HEPES pH=7, 0.25 to 10 μM; read-out: EC50 values on colon and liver cancer cells, RKO
Procedure: as §1, §2

SW620 = assay: XTT cell viability, SW620 colon cancer cells; details: Homo sapiens, SW-620; SW620 colon cancer cell line; XTT test; compound in 30 mM HEPES pH=7, 0.25 to 10 μM; read-out: EC50 values on colon and liver cancer cells, SW620
Procedure: as §1, §2

SW48 = assay: XTT cell viability, SW48 colon cancer cells; details: Homo sapiens; SW48 colon cancer cell line; XTT test; compound in 30 mM HEPES pH=7, 0.25 to 10 μM; read-out: EC50 values on colon and liver cancer cells, SW48
Procedure: as §1, §2

Hep3B = assay: XTT cell viability, Hep3B liver cancer cells; details: Homo sapiens; Hep3B liver cancer cell line; XTT test; compound in 30 mM HEPES pH=7, 0.25 to 10 μM; read-out: EC50 values on colon and liver cancer cells, Hep3B
Procedure: as §1, §2

FS (normal fibroblasts) = assay: XTT cell viability, FS (normal fibroblasts); details: Fibroblast; FS normal (non malignant) fibroblasts; XTT test; compound in 30 mM HEPES pH=7, 0.25 to 10 μM
Procedure: as §1, §2

| EC50 (HCT116) | EC50 (HT29) | EC50 (RKO) | EC50 (SW620) | EC50 (SW48) | EC50 (Hep3B) | SMILES | EC50 (FS (normal fibroblasts)) |
| --- | --- | --- | --- | --- | --- | --- | --- |
| 3000 nM | 2000 nM | 1000 to 2000 nM | 500 to 1000 nM | 500 to 1000 nM | 1000 to 2000 nM | CC(C)c1ccc(-c2cn3nc(N4CCN(CC5CCN(C)CC5)CC4)sc3n2)cc1 [Z522-0249, 6-(4-isopropylphenyl)-2-{4-[(1-methylpiperidin-4-yl)methyl]piperazin-1-yl}imidazo[2,1-b][1,3,4]thiadiazole] | 10000 nM |
| 3000 to 4000 nM | 2000 to 3000 nM | 2000 to 3000 nM | 500 to 1000 nM | 500 to 1000 nM | 1000 to 2000 nM | CC(C)c1ccc(-c2cn3nc(N4CCC(CN5CCN(C)CC5)CC4)sc3n2)cc1 [Z522-0251, 6-(4-isopropyl-phenyl)-2-{4-[(4-methyl-piperazin-1-yl)methyl]piperidin-1-yl}imidazo[2,1-b][1,3,4]thiadiazole] |  |
